The results in this text go back to US20110263429A1, “Pesticidal Combinations” (priority 2008, published 2011).

Assay [1] has as its system cutworm (Spodoptera littoralis). Kind of assay: Field seed-treatment trial, plant count per plot. The class given is in vivo. The following applies: field with heavy Spodoptera littoralis population, plants per plot counted 13 days after planting, 4 replicates, fludioxonil + mefenoxam base treatment. An excerpt: (§1) An unexpected effect exists whenever the action of an active ingredient combination is greater than the sum of the actions of the individual components.
(§2) The action to be expected E for a given active ingredient combination obeys the so-called COLBY formula and can be calculated as follows (COLBY, S. R. “Calculating synergistic and antagonistic responses of herbicide combination”. Weeds, Vol. 15, pages 20-22; 1967):
(§3) ppm=milligrams of active ingredient (=a.i.) per liter of spray mixture X=% action by active ingredient A) using p ppm of active ingredient Y=% action by active ingredient B) using q ppm of active ingredient.
(§4) According to COLBY, the expected (additive) action of active ingredients A)+B) using p+q ppm of active ingredient is
(§5) If the action actually observed (O) is greater than the expected action (E), then the action of the combination is super-additive, i.e. there is a synergistic effect.
In a field having a heavy population of cutworm (Spodoptera littoralis), seeds are planted that have the following treatments: • (a) a compound of formula (X) (0.6 mg ai/seed) • (b) thiamethoxam (0.63 mg ai/seed) • (c) a compound of formula (X) (0.6 mg ai/seed)+thiamethoxam (0.63 mg ai/seed)
For all treatments, including check, fludioxonil (2.5 g ai/100 kg seeds) and mefenoxam (1.0 g ai/100 kg seeds) were used as a fungicide base treatment. […]

Assay [2] relates to cutworm (Agrotis sp.). Nature of the assay: Field seed-treatment trial, cutworm larvae count per plot. To be noted: for Control (%) Observed: seed treatment, field with heavy Agrotis sp. population, larvae per plot counted 22 days after planting, 4 replicates, fludioxonil + mefenoxam base treatment. The class given is in vivo.
Excerpt: as §1, §2, §3, §4, §5
In a field having a heavy population of cutworm (Agrotis sp.), seeds are planted that have the following treatments: • (a) a compound of formula (X) (0.6 mg ai/seed) • (b) thiamethoxam (0.63 mg ai/seed) • (c) a compound of formula (X) (0.6 mg ai/seed)+thiamethoxam (0.63 mg ai/seed)
For all treatments, including check, fludioxonil (2.5 g ai/100 kg seeds) and mefenoxam (1.0 g ai/100 kg seeds) were used as a fungicide base treatment.
Assessment: Count number larvae per plot (22 days after planting) Number of replicates: 4

On to `CN1COCN(Cc2cnc(Cl)s2)/C1=N\[N+](=O)[O-]` [(b), thiamethoxam], for which the “% Control Observed” value in assay [1] was 40%. For the same molecule, in assay [2], the “Control (%) Observed” value is given as 31%.

“mixture of 5,6-Dihydro-3′-O-ethyl Spinosyn J (RN: 187166-40-1 and 3′-O-Ethyl Spinosyn L (RN: 187166-15-0) in a weight ratio of 50-90%:10-50% [(a)]”: the “% Control Observed” value in assay [1] was found to be 48%. In addition, in assay [2] (expected (additive) action by COLBY formula, Agrotis sp., 22 days after planting), the “Control (%) Colby expected” value amounted to 15%. For the same molecule, the “Control (%) Observed” value in assay [2] is on record as 50%.
